Patent publication US12599580B2, “Composition comprising a lipid compound, a triglyceride, and a surfactant, and methods of using the same” (BASF AS, priority 2013, dated 2026)
Structures can show the parent of a compound that is named as a salt. Where two headings read alike, the source gives them in different places. Each block holds one compound with its values, some of them ahead of it.

Assays:
[1] = Phase 1 study, food effect (fed and fasted state), single oral dose; assay type: in vivo, healthy subjects (humans); settings: human, plasma; for AUC(0-t): composition No. 27 in capsules, healthy male subjects, read-out: AUC0-24 h
Excerpt: Phase 1 study of 2-((5Z,8Z,11Z,14Z,17Z)-icosa-5,8,11,14,17-pentaenyloxy)butanoic acid (API) assessing the safety, tolerability, PK, and pharmacodynamics (PD) have been performed in healthy individuals. Each group consisted of 6 healthy subjects. The formulation according to the present disclosure included Tween 20 (40 wt %), Miglyol 812N (30 wt %) and API (30 wt %). The API was mixed with other components of the composition as described under “General procedures.” The formulation of this example corresponds to composition No. 27 of Example 1. The premix was filled into capsules and administered orally to humans.

[2] = Phase 1 study, escalating single oral doses 5 to 600 mg; assay type: in vivo, healthy subjects (humans); settings: single oral doses between 5 to 600 mg, healthy subjects
Method: Phase 1 study of 2-((5Z,8Z,11Z,14Z,17Z)-icosa-5,8,11,14,17-pentaenyloxy)butanoic acid (API) assessing the safety, tolerability, PK, and pharmacodynamics (PD) has been performed in healthy individuals. Each dose group consisted of 6 healthy subjects. The initial dose of API received was 5 mg, and the maximum dose of API was 600 mg. The API was mixed with other components of the formulations according to Table 20, the premix was filled into capsules and administered orally to humans.
A minimum of 10 days intervene before each dose escalation. Escalating doses are administered to the groups sequentially.

[3] = Phase 1 study, individual variability in pharmacokinetics at 600 mg; assay type: in vivo, healthy subjects (humans); settings: single oral dose 600 mg, composition No. 27, healthy male subjects
Method: Phase 1 study of 2-((5Z,8Z,11Z,14Z,17Z)-icosa-5,8,11,14,17-pentaenyloxy)butanoic acid (API) assessing the safety, tolerability, PK, and pharmacodynamics (PD) has been performed in healthy individuals. Each dose group consisted of 6 healthy subjects. The initial dose API received was 5 mg, and the maximum dose was 600 mg. Data presented here are with an API dose of 600 mg. This formulation included Tween 20 (40 wt %), Miglyol 812N (30 wt %) and API (30 wt %). The API was mixed with other components of the composition as described under “General procedures.” The formulation for this example corresponds to composition No. 27 of Example 1. A minimum of 10 days intervene before each dose escalation. Escalating doses were administered to the groups sequentially.

[4] = Phase 1 study, pharmacokinetics in male and female, 300 mg b.i.d for 14 days; assay type: in vivo, healthy subjects (humans); settings: for AUC / Cmax: human, plasma, oral, composition No. 27; for AUC: read-out: Geometric mean AUC0-τ; for Cmax: read-out: Geometric mean Cmax
Method: Phase 1 study of 2-((5Z,8Z,11Z,14Z,17Z)-icosa-5,8,11,14,17-pentaenyloxy)butanoic acid (API) assessing the safety, tolerability, PK, and pharmacodynamics (PD) has been performed in healthy individuals. Each dose group consisted of 6 healthy subjects. An API dose of 300 mg b.i.d was given orally to males and females for 14 consecutive days. The formulation given included Tween 20 (40 wt %), Miglyol 812N (30 wt %) and API (30 wt %). The API was mixed with other components in the formulation as described under “General procedures.” The formulation of this example corresponds to composition No. 27 of Example 1.

[5] = Solubility of the API in water; assay type: physicochemical
Excerpt: (§1) Thus, low bioavailability is expected.

[6] = Permeability of the API; assay type: in vitro ADME
Excerpt: as §1

[7] = tested on: APOE*3Leiden.CETP transgenic mouse model; settings: cited from earlier work
[8] = Solubility of salts in surfactants and co-solvents; assay type: physicochemical
Excerpt: Salts prepared from monovalent counter ions are all highly soluble in surfactants according to the present disclosure and excellent pre-concentrates and SMEDDS can be prepared.

[9] = male, po, 100 mg, Fasted, single oral dose 100 mg API
[10] = male, po, 100 mg, Fed, single oral dose 100 mg API

Tmax ([1]; both sexes, oral, healthy male and female subjects receiving single doses, read-out: mean Tmax): 1 to 2 h
Cmax [1, 9]: 2800 ng/mL
half-life [1, 9]: 6.36 ± 3.13 h
AUC(0-t) [1, 9]: 14000 ng·h/mL
Tmax ([1]; male, po, 100 mg, Fasted, single oral dose 100 mg API, read-out: Tmax): 1.4 h
Cmax [1, 10]: 2700 ng/mL
half-life [1, 10]: 6.29 ± 2.13 h
AUC(0-t) [1, 10]: 15000 ng·h/mL
Tmax ([1]; male, po, 100 mg, Fed, single oral dose 100 mg API, read-out: Tmax): 3.6 h
increase of exposure (Cmax and AUC0-24) with dose [2]: higher than dose-proportional manner
% CV (relative variability) of AUC0-24 [3]: ~15%
% CV (relative variability) of Cmax [3]: approximately 10%
AUC Ratio E/M ([4]; Day 14, 300 mg b.i.d): 0.937
Cmax Ratio E/M ([4]; Day 14, 300 mg b.i.d): 1.12
AUC ([4]; Female, Day 14, 300 mg b.i.d): 75800 ng·h/mL
Cmax ([4]; Female, Day 14, 300 mg b.i.d): 15800 ng/mL
AUC ([4]; Male, Day 14, 300 mg b.i.d): 80900 ng·h/mL
Cmax ([4]; Male, Day 14, 300 mg b.i.d): 14100 ng/mL
solubility in water [5]: low solubility in water
permeability [6]: low permeability
Compound: CC/C=C\C/C=C\C/C=C\C/C=C\C/C=C\CCCCOC(CC)C(=O)O (stereo not shown) [API, 2-((5Z,8Z,11Z,14Z,17Z)-icosa-5,8,11,14,17-pentaenyloxy)butanoic acid]
gender differences in pharmacokinetics (Cmax, AUC0-24) ([4]; 300 mg b.i.d, males and females, 14 consecutive days): no gender differences in pharmacokinetics
HDL cholesterol as compared to a control [7]: increased
atherosclerotic lesion areas in the aorta as compared to a control [7]: decreased
total cholesterol as compared to a control [7]: decreased

solubility in surfactants and co-solvents [8]: medium solubility
Compound: CC/C=C\C/C=C\C/C=C\C/C=C\C/C=C\CCCCOC(CC)C(=O)O (stereo not shown) [magnesium salt, magnesium 2-((5Z,8Z,11Z,14Z,17Z)-icosa-5,8,11,14,17-pentaenyloxy)butanoate]
